Laboratory results published in patent US8329617B2, “Compositions and methods for synergistic manipulation of plant and insect defenses” (Plant Bioscience Limited, priority 2007, dated 2012).
Entries after “also recorded” stand apart in the source; their conditions may differ.

Legend:
Myzus persicae, US1L [1] = assay: Bioassay: M. persicae protein on four pepper plants treated with cis-jasmone and PBO (1, 5 or 10 adults per plant); type: in vivo; conditions: for Av. Total Insect Protein μg: Bioassay, M. persicae (US1L), average of weeks 1 to 3; for μg (Av) Total Protein (M. persicae): four pepper plants, 7 days
Procedure: (§1) In all bioassay experiments the control plants were sprayed with deionised water. Initially seven treatments were used (Table 1) to test all chemical variables. All treatments were applied hydraulically with a spray simulator after which the plants were separated according to treatment (with cis-jasmone controls being separated) and left for 2 hours prior to insect application.
Analysis of protein in each treatment was conducted using Bradford Reagent: the data were analysed using the computer programme ‘GraFit’ (Erithacus software, Berkeley). To calculate the calibration curve a single logarithmic curve was used with regression analysis taking the values of the treatment wells (averages of the three readings taken: technical replicates). […]
To investigate developmental/fecundity effects of cis-jasmone+/−PBO E on Myzus persicae when applied to sweet peppers, one adult was added to the plants. Aphids were brushed from all plants and each leaf checked individually to ensure none remained. The aphid mass for each treatment was assessed for total protein (total from all four plants in the treatment) using Bradford reagent. The amount of aphid protein present on the plants 7 days after treatment was measured.
(§2) Myzus persicae was applied to sweet peppers at the rate of five adults were added per plant. Aphids were brushed from all plants and each leaf checked individually to ensure none remained. The aphid mass for each treatment was assessed for total protein (total from all four plants in the treatment) using Bradford reagent. The amount of aphid protein present on the plants 7 days after treatment was measured (for further information see Example 3).
as §2, with “persicae were” for “persicae was”, “of ten” for “of five”, “adults” for “adults were added”

first instar aphids = assay: BABA root drench concentration series, aphid population growth on brassica and potato; type: in vivo; conditions: series 1-10 mM, aphids weighed after 1 week
Procedure: Using example crops of brassica [Brassica nigra] and potato [Solanum tuberosum]; BABA was added as a drench to the roots to ‘prime’ the plants in a series of concentrations (1-10 mM). The plants were artificially infested with a set number of first instar aphids (characterised as insecticide-resistant or -susceptible) and left for 1 week. At the end of this period, all aphids were removed and weighed to determine the growth of the population. This identified the optimal concentration of BABA to use to produce maximum secondary metabolites within the plant. All concentrations were lower than that which could cause direct damage to the crop. 3 mM BABA was identified as optimal for the conditions employed.

whitefly (B. tabaci) = assay: Bioassay: B. tabaci pupae protein on cotton and tomato plants treated with BABA and/or PBO; type: in vivo, Bemisia tabaci; conditions: 3 mM BABA root drench, PBO E spray
Procedure: In all bioassay experiments the control plants were sprayed with deionised water. Initially seven treatments were used (Table 1b) to test all chemical variables. […] Analysis of protein in each treatment was conducted using Bradford Reagent: the data were analysed using the computer programme ‘GraFit’ (Erithacus software, Berkeley). To calculate the calibration curve a single logarithmic curve was used with regression analysis taking the values of the treatment wells (averages of the three readings taken: technical replicates). Laboratory tests were undertaken to compare effects of combined and single treatments of PBO and BABA on control of aphid (M. persicae) on potato, pepper, and black mustard and whitefly (B. tabaci) on cotton and tomato. All tests included untreated and blank (water) controls, and both single and combined applications of PBO and BABA. […] Adults were added to the plant 2 days after treatment, and removed after 24 h. The eggs laid were then left for 16-18 days until they reached the pupal stage. The total pupal protein on the plant was tested using the Bradford reagent.

aphid (M. persicae) = assay: Bioassay: M. persicae protein on potato, pepper and black mustard plants treated with BABA and/or PBO; type: in vivo, Myzus persicae; conditions: 3 adult apterous aphids per plant, 3 mM BABA root drench, PBO E spray, 7 days
Procedure: In all bioassay experiments the control plants were sprayed with deionised water. Initially seven treatments were used (Table 1b) to test all chemical variables. […] Analysis of protein in each treatment was conducted using Bradford Reagent: the data were analysed using the computer programme ‘GraFit’ (Erithacus software, Berkeley). To calculate the calibration curve a single logarithmic curve was used with regression analysis taking the values of the treatment wells (averages of the three readings taken: technical replicates). Laboratory tests were undertaken to compare effects of combined and single treatments of PBO and BABA on control of aphid (M. persicae) on potato, pepper, and black mustard and whitefly (B. tabaci) on cotton and tomato. All tests included untreated and blank (water) controls, and both single and combined applications of PBO and BABA. […] To investigate developmental/fecundity effects of BABA+/−PBO E (see Table 1) on Myzus persicae when applied to plants, adults were added to the plants and then using Bradford reagent, the amount of aphid protein present on the plants 7 days after treatment was measured. Esterase levels were also tested after the same interval to check for the possible induction of metabolic enzymes when using BABA. Aphids were brushed from all plants and each leaf checked individually to ensure none remained. The aphid mass for each treatment was weighed before total protein was assessed (total from all five plants in the treatment).

Bemisia tabaci, GUA MIX [2] = assay: Bioassay: B. tabaci pupae protein on one tomato plant treated with cis-jasmone and PBO; type: in vivo; conditions: for μg (Av) Total Protein (B. tabaci pupae): one tomato plant, ten adult whiteflies, ~16 days
Procedure: as §1
(§3) Analysis of protein in each treatment was conducted using Bradford Reagent: the data were analysed using the computer programme ‘GraFit’ (Erithacus software, Berkeley). To calculate the calibration curve a single logarithmic curve was used with regression analysis taking the values of the treatment wells (averages of the three readings taken: technical replicates).
(§4) A new method for the investigation of the development of whitefly to the pupal stage on tomatoes and cotton was used. […] These were checked for protein after ˜16 days using Bradford reagent.
(§5) Adults were added to the plant 2 h after treatment, and removed after 24 h. The eggs laid were then left for 16-18 days until they reached the pupal stage. The total pupal protein on the plant was tested using the Bradford reagent.

Bemisia tabaci, GUA MIX [3] = assay: Glasshouse simulator trial: B. tabaci pupae protein on tomato plants treated with cis-jasmone and PBO; type: in vivo; conditions: for μg (Av) Total Protein (B. tabaci pupae): simulator, ten tomato plants per treatment, ten adult whiteflies per plant, ~16 days
Procedure: as §1, §3, §4, §5
As described above 10 adult females were released on to each tomato plant, ten/treatment and after ˜16 days pupae were removed using a scalpel blade. These were checked for total protein using Bradford reagent. Plants were put into glasshouse simulators (one/treatment) and kept at 28° C., 12 L: […] and 80% R.H.

B. tabaci = B. tabaci pupae protein on cotton plants treated with PBO and/or microencapsulated cis-jasmone; type: in vivo, Bemisia tabaci; conditions: five cotton plants per treatment, 5 adult female whiteflies per plant, ~16 days
Procedure: as §4, §5

Myzus persicae, US1L [4] = assay: Glasshouse simulator trial: M. persicae protein on pepper plants treated with cis-jasmone and PBO; type: in vivo; conditions: for μg (Av) Total Protein (M. persicae): simulator, 25 pepper plants per treatment, three adult apterous aphids per plant, 7 days
Procedure: as §1, §3
To investigate developmental/fecundity effects of cis-jasmone+/−PBO (see Table 1) on Myzus persicae when applied to sweet peppers, adults were added to the plants and then using Bradford reagent, the amount of aphid protein present on the plants 7 days after treatment was measured. Esterase levels were also tested after the same interval to check for the possible induction of metabolic enzymes when using cis-jasmone. Aphids were brushed from all plants and each leaf checked individually to ensure none remained. The aphid mass for each treatment was weighed before total protein was assessed (total from all […] plants in the treatment).
Myzus persicae were applied to sweet peppers at the rate of three adults per plant. Aphids were brushed from all plants and each leaf checked individually to ensure none remained. The aphid mass for each treatment was assessed for total protein (total from all 25 plants in the treatment) using Bradford reagent. The amount of aphid protein present on the plants 7 days after treatment was measured. Plants were put into glasshouse simulators (one/treatment) and kept at 28° C., 12 L: […] and 80% R.H.

Aphis gossypii = assay: A. gossypii protein on cotton plants treated with propyl gallate and cis-jasmone; type: in vivo; conditions: A. gossypii on cotton
[5] = five adult apterous aphids per plant, week 1
[6] = five adult apterous aphids per plant, week 2
[7] = five adult apterous aphids per plant, week 3
[8] = one adult apterous aphid per plant, week 1
[9] = one adult apterous aphid per plant, week 2
[10] = one adult apterous aphid per plant, week 3
[11] = ten adult apterous aphids per plant, week 1
[12] = ten adult apterous aphids per plant, week 2
[13] = ten adult apterous aphids per plant, week 3

In the case of “2-(2-butoxyethoxy)ethyl 6-propylpiperonyl ether [PBO T + Acetone]”, the “Av. Total Insect Protein μg” value (Myzus persicae, US1L [1]; 1 adult/plant) is reported as 11.610 µg, the “Av. Total Insect Protein μg” value (Myzus persicae, US1L [1]; 5 adults/plant) is reported as 20.370 µg and the “Av. Total Insect Protein μg” value (Myzus persicae, US1L [1]; 10 adults/plant) is reported as 34.830 µg. The “μg (Av) Total Protein (M. persicae)” value (Myzus persicae, US1L [1]; [5]) was 22.30 µg, the “μg (Av) Total Protein (M. persicae)” value (Myzus persicae, US1L [1]; [6]) was 16.50 µg and the “μg (Av) Total Protein (M. persicae)” value (Myzus persicae, US1L [1]; [7]) was 22.30 µg. For the same compound, the “μg (Av) Total Protein (M. persicae)” value (Myzus persicae, US1L [1]; [8]) was 12.23 µg, the “μg (Av) Total Protein (M. persicae)” value (Myzus persicae, US1L [1]; [9]) was 12.30 µg and the “μg (Av) Total Protein (M. persicae)” value (Myzus persicae, US1L [1]; [10]) was 10.30 µg. The “μg (Av) Total Protein (M. persicae)” value (Myzus persicae, US1L [1]; [11]) was 37.68 µg, the “μg (Av) Total Protein (M. persicae)” value (Myzus persicae, US1L [1]; [12]) was 33.6 µg and the “μg (Av) Total Protein (M. persicae)” value (Myzus persicae, US1L [1]; [13]) was 33.2 µg.

For `CC(N)CC(=O)O` (stereo not drawn) [BABA, beta aminobutyric acid], the “optimal concentration of BABA” value (first instar aphids) was 3 mM, the “Protein WF (Av)” value (whitefly (B. tabaci); cotton plants, ~16 days, week 1) was 0.1 µg and the “Protein WF (Av)” value (whitefly (B. tabaci); cotton plants, ~16 days, week 2) was 0.2 µg. For the same compound, the “Protein WF (Av)” value (whitefly (B. tabaci); cotton plants, ~16 days, week 3) was 0.2 µg, the “Protein WF (Av)” value (whitefly (B. tabaci); tomato plants, week 1) was 0.1 µg and the “Protein WF (Av)” value (whitefly (B. tabaci); tomato plants, week 2) was 0.23 µg. For the same compound, the “Protein WF (Av)” value (whitefly (B. tabaci); tomato plants, week 3) was 0.15 µg, the “Protein A (Av)” value (aphid (M. persicae); five black mustard plants, week 1) was 14.56 µg and the “Protein A (Av)” value (aphid (M. persicae); five black mustard plants, week 2) was 15.10 µg. For the same compound, the “Protein A (Av)” value (aphid (M. persicae); five black mustard plants, week 3) was 14.10 µg, the “Protein A (Av)” value (aphid (M. persicae); five pepper plants, week 1) was 15.10 µg and the “Protein A (Av)” value (aphid (M. persicae); five pepper plants, week 2) was 16.10 µg. For the same compound, the “Protein A (Av)” value (aphid (M. persicae); five pepper plants, week 3) was 15.00 µg, the “Protein A (Av)” value (aphid (M. persicae); five potato plants, week 1) was 7.80 µg and the “Protein A (Av)” value (aphid (M. persicae); five potato plants, week 2) was 7.90 µg. The “Protein A (Av)” value (aphid (M. persicae); five potato plants, week 3) was 8.30 µg.

In the case of `CC/C=C\CC1=C(C)CCC1=O` [CJ, cis-jasmone], the “Av. Total Insect Protein μg” value (Bemisia tabaci, GUA MIX [2]; Bioassay, Bemisia tabaci (GUA MIX), average of weeks 1 to 3) is reported as 0.167 µg, the “μg (Av) Total Protein (B. tabaci pupae)” value (Bemisia tabaci, GUA MIX [2]; week 1) is reported as 0.1 µg and the “μg (Av) Total Protein (B. tabaci pupae)” value (Bemisia tabaci, GUA MIX [2]; week 2) is reported as 0.2 µg. The “μg (Av) Total Protein (B. tabaci pupae)” value (Bemisia tabaci, GUA MIX [2]; week 3) was 0.2 µg, the “Av. Total Insect Protein μg” value (Bemisia tabaci, GUA MIX [3]; Simulator, Bemisia tabaci (GUA MIX) on Tomato (Carousel), average of weeks 1 to 3) was 0.104 µg and the “μg (Av) Total Protein (B. tabaci pupae)” value (Bemisia tabaci, GUA MIX [3]; week 1) was 0.109 µg. For the same compound, the “μg (Av) Total Protein (B. tabaci pupae)” value (Bemisia tabaci, GUA MIX [3]; week 2) was 0.102 µg, the “μg (Av) Total Protein (B. tabaci pupae)” value (Bemisia tabaci, GUA MIX [3]; week 3) was 0.100 µg and the “Protein WF (Av)” value (B. tabaci; week 1) was 0.03 µg. For the same compound, the “Protein WF (Av)” value (B. tabaci; week 2) was 0.06 µg, the “Av. Total Insect Protein μg” value (Myzus persicae, US1L [4]; Simulator, M. persicae (US1L) on Pepper (BellBoy), average of weeks 1 to 3) was 13.842 µg and the “μg (Av) Total Protein (M. persicae)” value (Myzus persicae, US1L [4]; week 1) was 13.82 µg. For the same compound, the “μg (Av) Total Protein (M. persicae)” value (Myzus persicae, US1L [4]; week 2) was 13.8 µg, the “μg (Av) Total Protein (M. persicae)” value (Myzus persicae, US1L [4]; week 3) was 13.9 µg and the “Av. Total Insect Protein μg” value (Myzus persicae, US1L [1]; 1 adult/plant) was 7.690 µg. The “Av. Total Insect Protein μg” value (Myzus persicae, US1L [1]; 5 adults/plant) was 11.330 µg, the “Av. Total Insect Protein μg” value (Myzus persicae, US1L [1]; 10 adults/plant) was 25.210 µg and the “μg (Av) Total Protein (M. persicae)” value (Myzus persicae, US1L [1]; [5]) was 11.00 µg. The “μg (Av) Total Protein (M. persicae)” value (Myzus persicae, US1L [1]; [6]) was 11.99 µg, the “μg (Av) Total Protein (M. persicae)” value (Myzus persicae, US1L [1]; [7]) was 11.00 µg and the “μg (Av) Total Protein (M. persicae)” value (Myzus persicae, US1L [1]; [8]) was 11.00 µg. For the same compound, the “μg (Av) Total Protein (M. persicae)” value (Myzus persicae, US1L [1]; [9]) was 3.27 µg, the “μg (Av) Total Protein (M. persicae)” value (Myzus persicae, US1L [1]; [10]) was 8.80 µg and the “μg (Av) Total Protein (M. persicae)” value (Myzus persicae, US1L [1]; [11]) was 25.14 µg. For the same compound, the “μg (Av) Total Protein (M. persicae)” value (Myzus persicae, US1L [1]; [12]) was 25.4 µg and the “μg (Av) Total Protein (M. persicae)” value (Myzus persicae, US1L [1]; [13]) was 25.1 µg.

`CCCOC(=O)c1cc(O)c(O)c(O)c1` [propyl gallate, Propyl 3,4,5-trihydroxybenzoate] was tested, and the “effect of propyl gallate on efficacy of microencapsulated cis-Jasmone (in words)” value (Aphis gossypii) was “significantly (p<0.05) improves the efficacy of microencapsulated cis-Jasmone; also recorded: potentiates microencapsulated cis-Jasmone at least as well as PBO”.
